For series [1] the following is noted: cited from earlier work.
In series [2] the test system is rCDE-challenged C57BL/6 mice. Description: Repetitive cat dander extract (rCDE) challenge, airway remodeling model. The class given is in vivo, mouse. The following applies: 10 mg/kg ip; for modified Ashcroft score: rCDE alone 8.8±2 (IKKi study), 9±2 (ZL0454 study). The method, then: 12 week old male wild-type (WT) C57BL/6 mice were purchased from Jackson Laboratory (Bar Harbor, Me.). CDE (Stallergenes/Greer laboratories, 20 μg/dose) was administered to naïve C57BL6/J mice every other day via the intranasal route for a total of 15 administrations (n=5 mice/group). In the IKK inhibitor experiments, mice were either pretreated with vehicle or the selective IKK inhibitor [BMS345541, 10 mg/kg via the intraperitoneal (ip) route]. […] Mice were sacrificed 12 d later to allow resolution of the acute inflammation.
Formalin-fixed lungs were embedded in paraffin, sectioned at a 4 μm thickness, and stained with hematoxylin and eosin or Masson's trichrome. Microscopy was performed on a NIKON Eclipse Ti System 16, 17. Pulmonary fibrosis was graded using a modified Ashcroft scoring method 16, 17. In brief, to determine the fibrosis histopathology score for the lung of each mouse, the entire left and right longitudinal lung sections were scored separately (score range, 0 to 9) at ×100 magnification, and the scores were combined (total score range, 0 to 18)^16, 17.
Bronchoalveolar lavage and tissue processing. Animals were anesthetized, bronchoalveolar lavage fluid (BALF) was obtained and the mice sacrificed. Lung tissues were taken for total RNA extraction or fixed for histological examination. For histological examination, lungs were inflated under 25 cm H2O pressure with 10% (v/v) neutral buffered formalin through the tracheal cannula and immersed in 10% buffered formalin for at least 24 h. After being processed into paraffin blocks, the lungs were cut into 5-μm sections and stained with Masson Trichrome to assess fibrotic changes. Microscopy was performed on a NIKON Eclipse Ti System^75.
Quantification of accumulated mucin was assessed by 2 investigators who were blind to the treatment groups on a subjective scale of 0, 1, 2, 3, and 4 corresponding to none, mild, moderate, marked, or severe mucin deposition, respectively. Data were expressed as means of scores recorded by 2 blinded investigators^76,77.
(§1) Cellular recruitment into the airway lumen was assessed in the collected bronchoalveolar lavage fluid (BALF) of mice. Lungs were perfused twice with 1 mL of sterile PBS (pH 7.4) and total cell counts determined by trypan blue staining and counting using a hemocytometer. Differential cell counts were performed on cytocentrifuge preparations (Cytospin 3; Thermo Shandon, Pittsburgh, Pa.) stained with Wright-Giemsa. A total of 300 cells were counted per sample using light microscopy.
(§2) For gene expression analyses, 0.1 μg of cDNA product from reverse transcription of total RNA was amplified using SYBR Green Supermix (Bio-Rad) and gene-specific primers as previously described^75, 78. Quantification of relative changes in gene expression was calculated using the ΔΔCt method^79,80 and expression as the fold change between experimental and control samples was normalized to internal control peptidylprolyl isomerase A (PPI1A)/cyclophilin A.
Confocal Immunofluorescence assays of lung sections were performed on formalin-fixed, paraffin-embedded sections after rehydration using serial concentrations of ethanol. Antigen retrieval was performed in Tris-EDTA buffer (pH 9.0). Lung sections were blocked using 0.1% Triton-X, 5% normal goat serum in phosphate buffered saline (PBS) and incubated with primary antibodies of rabbit anti-p276RelA, pIKKα/β, SNAIL H3K122ac, COL1A, VIM, FN1, and αSMA (Abcam, 1:100 dilution) overnight at 4° C. Normal anti-rabbit IgG were used as staining specificity controls. After washing, lung sections were stained with Alexa Fluor 488- or 568-conjugated goat anti-rabbit IgG (Life Technologies) in incubation buffer for 1 h. Nuclei were stained with 4′, 6-diamidino-2-phenylindole (DAPI) (5 μg/ml in PBS, 20 min) and mounted slides visualized with a LSM510 fluorescence confocal microscope, magnification 63×.
Total IgE in serum were measured using Sandwich ELISA. […]

Another series deals with CIG5. Briefly: Inhibition of CIG5 induction in hSAECs. The class given is cell-based. Conditions: Homo sapiens.
The target of a further series is BRD4 (Homo sapiens, UniProt O60885). Conditions: in cellulo; cited from earlier work.
For series [3] the following is noted: 3 months of administration; cited from earlier work.
Series [4] deals with acute CDE-challenged mice. Description: Acute intranasal CDE challenge, BALF cell counts. The class given is in vivo, mouse. The following applies: 10 mg/kg; within 24 h of treatment.
Description: FIG. 12. BRD4 pathway mediates CDE-induced EMT of airway epithelial cells. […] A, Q-RT-PCR for CDH1 mRNA expression. #, p<0.01, compared to without CDE, n=3. B, Q-RT-PCR for SNAI1 mRNA expression. *, p<0.01, compared to CDE alone, n=3. C, Q-RT-PCR for COL1A, FN1, and VIM mRNA expression. D, Q-RT-PCR for IL6 mRNA expression. E, Confocal immunofluorescence microscopy for phalloidin (green color), H3K122-Ac (red color), SNAI1 (green color), and VIM (red color) counterstained with DAPI (blue color) in WT hSAECs in absence or presence of CDE (20 μg/mL, 15d) stimulation. Images were acquired at 63×. At right are quantifications of relative fluorescence intensities of phalloidin, H3K122ac, SNAIL and VIM, * p<0.01, n=5. […] Shown are total, macrophage, and neutrophil counts in BALF 24 h later after CDE challenge. G. Total serum IgE was quantitated for each chronic treatment group **, p<0.01, n=5.
as §1

The test system of the next series is hSAECs. Description: CDE-induced mesenchymal transition of hSAECs. The class given is cell-based, human. Conditions: CDE 20 μg/mL 15 d; 10 μM. On the procedure:
Immortalized human small airway epithelial cells (hSAECs) were previously described^25. hSAECs were grown in SAGM small airway epithelial cell growth medium (Lonza, Walkersville, Md.) in a humidified atmosphere of 5% CO2. BMS345541 was purchased from Sigma Aldrich. CDE was purchased from Greer Laboratories.
as §2
hSAECs were incubated ±CDE (20 μg/mL) for 15 d, re-plated on glass cover slips pretreated with rat tail collagen (Roche Applied Sciences), and fixed with 4% paraformaldehyde in PBS. Afterwards, the fixed cells were stained with Alexa Fluor® 488- or 568-phalloidin (Life Technologies) for cytoplasmic distribution of F-actin (green or red color) and also counterstained with 4′,6-diamidino-2-phenylindole (DAPI) for nuclear staining (blue color). The cells were visualized with a Nikon fluorescence confocal microscope at a magnification of 63×^75, 78.
For immunofluorescence staining, hSAECs were plated on rat tail collagen-treated cover glasses and stimulated with CDE for the indicated times. The cells were fixed with 4% paraformaldehyde in PBS and incubated with 0.1 m ammonium chloride for 10 min. […] After washing, cells were stained with Alexa Fluor 488- or 568-conjugated goat anti-rabbit IgG (Life Technologies) respectively in incubation buffer for 1 h, then visualized with a LSM510 fluorescence confocal microscope, magnification 63×.

Another series relates to IL-6. Briefly: Inhibition of IL-6 induction in hSAECs. The class given is cell-based. Conditions: Homo sapiens.

Take `CCC(=O)O[C@]1(C(=O)SCF)[C@H](C)C[C@H]2[C@@H]3C[C@H](F)C4=CC(=O)C=C[C@]4(C)[C@@]3(F)[C@@H](O)C[C@@]21C` [Fluticasone propionate]: in series [1], the “solubility in dimethyl sulfoxide and dimethylformamide” value was “freely soluble”; the “solubility in methanol and 95% ethanol” value is given as “slightly soluble”. The solubility in water entry in series [1] (water) was “practically insoluble”.

Take `Cc1ccc2nc(NCCN)c3ncc(C)n3c2c1` [IKKi, reference compound]: in series [2] (rCDE 15 intranasal challenges, rCDE alone 1,700×10^3), the “total leukocytes in the BALF” value is 450×10^3 cells/ml. Besides, in series [2] (rCDE), the “CDE-specific circulating IgE (allergic sensitization)” value was “completely blocked”; the “PAS staining (mucin, mucous metaplasia)” value is “blocked”; the “fibrosis / collagen formation and hypercellularity (Masson trichrome)” value was “reduced the fibrosis and hypercellularity, although not completely in the alveoli”; the “mesenchymal and ECM gene mRNA expression in total lung RNA (Q-RT-PCR)” value is given as “inhibited”. Moreover, in series [2] (rCDE), the “mucosal mesenchymal and ECM proteins (SNAI1, VIM, COL1A, FN1), immunofluorescence” value was “completely blocked”; the “subepithelial αSMA+/COL1+ myofibroblast population” value was “blocked”; the “modified Ashcroft score” value is 2±1. Besides, the “hydroxyproline concentration in BALF and lung tissue” value in series [2] (rCDE, rCDE alone 2-fold increase) is listed as “normalized”. In addition, the “phospho-IKKα/β abundance in the airway epithelial layer” value in series [2] (rCDE, rCDE alone 9-fold increase) is listed as “reduced to control values”. For the same compound, the “mucosal phospho-Ser 276 RelA formation” value in series [2] (rCDE, rCDE alone 14-fold increase) is listed as “blocked”.

As for `Cc1cc(/N=N/c2ccc3c(c2)CCC(=O)N3)c(N)cc1O` [ZL0420], it took 420 nM to reach half-maximal inhibition in the series on CIG5 (IC50).

`Cc1cc(/N=N/c2ccc(S(=O)(=O)NC3CCCC3)cc2)c(N)cc1O` [ZL0454, (E)-4-((2-Amino-4-hydroxy-5-methylphenyl)diazenyl)-N-cyclopentylbenzenesulfonamide]: the “BRD4 binding to Pol II and histones” value at BRD4 is “disrupts”. Also, in series [2] (rCDE), the “CDE-specific circulating IgE (allergic sensitization)” value was “completely blunted allergic responses”; the “PAS staining (mucin, mucous metaplasia)” value is recorded as “reduced”; the “RelA-BRD4 binding in lung sections (proximity ligation assay)” value is “disrupted”; the “fibrosis / collagen formation and hypercellularity (Masson trichrome)” value is “reduced collagen formation and hypercellularity”. In series [2] (rCDE), the “mesenchymal and ECM gene mRNA expression in total lung RNA (Q-RT-PCR)” value is “BRD4-dependent”; the “mucosal H3K122 Ac staining (BRD4 HAT activity)” value was “inhibited”; the “mucosal mesenchymal and ECM proteins (SNAI1, VIM, COL1A, FN1), immunofluorescence” value is given as “inhibited”; the “subepithelial αSMA+/COL1+ myofibroblast population” value is “blocked”. Besides, the “modified Ashcroft score” value in series [2] (rCDE) is given as 1.5±0.5. Also, the “hydroxyproline content in the lung” value in series [2] (rCDE, rCDE alone 0.65±1) is 0.35 ± 0.4 µg/mg. Moreover, in series [2] (rCDE, rCDE alone 130±20), the “hydroxyproline content in BALF” value is 70 ± 10 ng/mL. In addition, the “tolerability / apparent toxicity” value in series [3] is given as “well tolerated over 3 months of administration without apparent toxicity”. In addition, the “acute CDE-induced BALF neutrophilia” value in series [4] was “blocked”. In the series with hSAECs, the “CDE-induced inhibition of CDH1 mRNA” value is “blocked”; the “CDE-induced upregulation of SNAI1, FN1, VIM, COL1A and IL6 mRNAs” value is “significantly blocked”; the “formation of actin stress fibers, H3K122 Ac, SNAI1 and VIM expression (confocal immunofluorescence)” value was “prevented”.

With `COc1cc(OC)c2c(=O)cc(-c3cc(C)c(OCCO)c(C)c3)oc2c1` [ZL0468], the IC50 – broadly, the concentration that inhibits the measured activity by half – in the series on CIG5 worked out at 2600 nM; in the series with IL-6, 2800 nM.

The values above are taken from patent US11389433B2, “BRD4 inhibitor treatment of IgE-mediated diseases” (THE BOARD OF REGENTS OF THE UNIVERSITY OF TEXAS SYSTEM, priority 2018, dated 2022).
